Measured values: the NIST ThermoML archive (doi:10.1016/j.fluid.2012.11.007)
“And” between values parts separate entries of the source, which are not always exact repeats. Equal entries are not always repeated. Numbers after ± are expanded uncertainties.

Legend:
[1] = Molar enthalpy of transition or fusion; conditions: Crystal; DSC
[2] = Crystal; DTA

| Molar enthalpy of transition or fusion [1] | Normal melting temperature [2] | Compound |
| --- | --- | --- |
| 6.1 kcal/mol and 6.02 kcal/mol | 69.80 ± 0.5 °C | CCCCn1cc[n+](C)c1.[Cl-] [1-butyl-3-methylimidazolium chloride] |
| 3.67 ± 0.127 kcal/mol | 88.60 ± 0.5 °C | CCn1cc[n+](C)c1.[Cl-] [1-ethyl-3-methylimidazolium chloride] |
